Earlier results on five compounds are cited in patent publication US6534088B2, “Fibrate-statin combinations with reduced fed-fasted effects” (SkyePharma Canada Inc., priority 2001, dated 2003).

Assay in data set [1]: not given
The source holds these as a separate data set.

For the compound `COCc1c(C(C)C)nc(C(C)C)c(/C=C/[C@@H](O)C[C@@H](O)CC(=O)O)c1-c1ccc(F)cc1` [Cerivastatin], the solubility in water result is recorded as “soluble in water”. The “effect of food on absorption” value in data set [1] (oral administration) was “not sensitive to a food effect”.

Take `CC(C)n1c(/C=C/C(O)CC(O)CC(=O)O)c(-c2ccc(F)cc2)c2ccccc21` (centres unmarked) [Fluvastatin]: the solubility in water entry is on record as “soluble in water”. Besides, the “time to peak concentrations” value in data set [1] (oral administration) is reported as “less than 1 hour”.

For `CC[C@H](C)C(=O)O[C@H]1C[C@@H](C)C=C2C=C[C@H](C)[C@H](CC[C@@H]3C[C@@H](O)CC(=O)O3)[C@H]21` [Lovastatin], the solubility in water result is on record as “insoluble in water”.

Regarding `CC[C@H](C)C(=O)O[C@H]1C[C@H](O)C=C2C=C[C@H](C)[C@H](CC[C@@H](O)C[C@@H](O)CC(=O)O)[C@H]21` [Pravastatin], the “solubility in methanol and water” value is recorded as greater than 300 mg/mL. Moreover, the “partition coefficient (octanol/water)” value (pH of 7.0) is 0.59.

`CC(C)(Oc1ccc(C(=O)c2ccc(Cl)cc2)cc1)C(=O)O` [fenofibric acid]: the elimination half-life entry in data set [1] (metabolite in blood or plasma) is given as “approximately twenty”.
